According to the NIST ThermoML archive (doi:10.1016/j.jct.2017.07.006):

Columns and labels:
[1] = molar heat capacity at constant pressure; settings: 101.33 kPa, Liquid, DSC
[2] = Liquid; for thermal conductivity: 101.33 kPa, Laser flash apparatus; for Critical pressure / Critical temperature: Resistive pulse heating

CCCCCCCC(=O)OCC(COC(=O)CCCCCCC)OC(=O)CCCCCCC [1,2,3-propanetriol trioctanoate]
Settings | molar heat capacity at constant pressure, [1] [J/K/mol] | thermal conductivity, [2] [W/m/K]
315 K | 913.3 | 0.152
320 K | 921 | 0.152
325 K | 928.5 | 0.151
330 K | 935.9 | 0.151
335 K | 943.1 | 0.151
340 K | 950.2 | 0.15
345 K | 957.1 | 0.15
350 K | 964 | 0.15
355 K | 970.7 | 0.149
360 K | 977.4 | 0.149
365 K | 984.1 | 0.148
370 K | 990.7 | 0.148
375 K | 997.2 | 0.147
380 K | 1004 | 0.146
385 K | 1010 | 0.146
390 K | 1017 | 0.145
395 K | 1024 | 0.145
400 K | 1030 | 0.144
405 K | 1037 | 0.144
410 K | 1044 | 0.143
415 K | 1051 | 0.142
420 K | 1058 | 0.142
425 K | 1065 | 0.141

[2]
Settings | Critical pressure [kPa] | Critical temperature [K]
– | 830 | 836

CCCCCCCCCCCC(=O)OCC(COC(=O)CCCCCCCCCCC)OC(=O)CCCCCCCCCCC [1,2,3-propanetriyl tridodecanoate]
Settings | molar heat capacity at constant pressure, [1] [J/K/mol] | thermal conductivity, [2] [W/m/K]
330 K | 1316 | 0.164
335 K | 1323 | 0.163
340 K | 1331 | 0.162
345 K | 1340 | 0.161
350 K | 1350 | 0.161
355 K | 1361 | 0.16
360 K | 1372 | 0.16
365 K | 1384 | 0.159
370 K | 1396 | 0.159
375 K | 1407 | 0.158
380 K | 1418 | 0.158
385 K | 1428 | 0.157
390 K | 1438 | 0.156
395 K | 1446 | 0.155
400 K | 1453 | 0.154
405 K | 1458 | 0.153
410 K | 1461 | 0.151

[2]
Settings | Critical pressure [kPa] | Critical temperature [K]
– | 650 | 899

CCCCCCCCCCCCCC(=O)OCC(COC(=O)CCCCCCCCCCCCC)OC(=O)CCCCCCCCCCCCC [1,2,3-propanetriyl tri(tetradecanoate)]
Settings | molar heat capacity at constant pressure, [1] [J/K/mol] | thermal conductivity, [2] [W/m/K]
350 K | 1547 | 0.171
355 K | 1557 | 0.17
360 K | 1568 | 0.17
365 K | 1580 | 0.169
370 K | 1592 | 0.169
375 K | 1606 | 0.168
380 K | 1619 | 0.168
385 K | 1632 | 0.168
390 K | 1645 | 0.167
395 K | 1657 | 0.167
400 K | 1668 | 0.166
405 K | 1678 | 0.165
410 K | 1686 | 0.164

[2]
Settings | Critical pressure [kPa] | Critical temperature [K]
– | 610 | 925

CCCCCCCCCC(=O)OCC(COC(=O)CCCCCCCCC)OC(=O)CCCCCCCCC [1,2,3-propanetriyl tridecanoate]
Settings | molar heat capacity at constant pressure, [1] [J/K/mol] | thermal conductivity, [2] [W/m/K]
320 K | 1093 | 0.153
325 K | 1106 | 0.153
330 K | 1117 | 0.153
335 K | 1128 | 0.153
340 K | 1139 | 0.153
345 K | 1148 | 0.153
350 K | 1157 | 0.152
355 K | 1166 | 0.152
360 K | 1174 | 0.151
365 K | 1182 | 0.15
370 K | 1189 | 0.15
375 K | 1196 | 0.15
380 K | 1203 | 0.149
385 K | 1209 | 0.148
390 K | 1216 | 0.147
395 K | 1222 | 0.147
400 K | 1228 | 0.146
405 K | 1235 | 0.145
410 K | 1241 | 0.144
415 K | 1248 | 0.143

[2]
Settings | Critical pressure [kPa] | Critical temperature [K]
– | 750 | 864
